Literature values in paper PMC11956011, “An Amazing 30-Year Journey around the DABO Family: A Medicinal Chemistry Lesson on a Versatile Class of Non-nucleoside HIV-1 Reverse Transcriptase Inhibitors” (Journal of Medicinal Chemistry, 2025).

Assays:
HIV-1 = test system: HIV-1; set-up: method as in PMID 5787520; settings: 3.5 μM; MoI = 5 CCID50/cell; 40 days
[1] = test system: HIV-1 RT (WT, recombinant); settings: Fig 4
P236L HIV-1 RT = test system: P236L HIV-1 RT; set-up: method as in PMID 9748354, PMID 9554867
Y181C HIV-1 RT = test system: Y181C HIV-1 RT; set-up: method as in PMID 9748354, PMID 9554867
E233V HIV-1 RT = test system: E233V HIV-1 RT; set-up: method as in PMID 9748354, PMID 9554867
Y188H HIV-1 RT = test system: Y188H HIV-1 RT; set-up: method as in PMID 9748354, PMID 9554867
HIV-1 IIIB = test system: HIV-1 IIIB; set-up: method as in PMID 9748354, PMID 9554867; settings: read-out: p24 inhibition in MT-4 infected cells, IC90: IIIB
DLV-R-MF (P236L) = test system: DLV-R-MF (P236L); set-up: method as in PMID 9748354, PMID 9554867; settings: read-out: p24 inhibition in MT-4 infected cells, IC90: DLV-R-MF (P236L)
L-697661-R-IIIB (Y181C) = test system: L-697661-R-IIIB (Y181C); set-up: method as in PMID 9748354, PMID 9554867; settings: read-out: p24 inhibition in MT-4 infected cells, IC90: L-697661-R-IIIB (Y181C)
DLV-R-IIIB (L100I) = test system: DLV-R-IIIB (L100I); set-up: method as in PMID 9748354, PMID 9554867; settings: read-out: p24 inhibition in MT-4 infected cells, IC90: DLV-R-IIIB (L100I)
R88703-R-IIIB (Y181C) = test system: R88703-R-IIIB (Y181C); set-up: method as in PMID 9748354, PMID 9554867; settings: read-out: p24 inhibition in MT-4 infected cells, IC90: R88703-R-IIIB (Y181C)
V106A HIV-1 RT = settings: Fig 4
[2] = test system: E138K HIV-1 mutant strain; settings: Fig 12, in brackets
[3] = set-up: method as in doi:10.1039/c3md00247k, PMID 21752202; settings: in vivo
[4] = set-up: method as in doi:10.1039/c3md00247k; settings: mouse models

Cc1c(C(C)c2c(F)cccc2F)nc(N(C)C)[nH]c1=O (racemic) [compound 116]
water solubility (in words): scant water solubility | HIV-1 replication in acutely infected cultures after 4 h treatment (HIV-1): totally suppressed HIV-1 replication

C[C@H](Sc1nc(N)cc(Cl)n1)c1cc2ccoc2cn1 [compound 21, (−)-6-chloro-2-[(1-furo[2,3-c]pyridin-5-ylethyl)thio]-4-pyrimidinamine]
IC50 ([1]; read-out: RT assay, IC50: WT): 20 nM | IC50 (L100I HIV-1 RT): 39 nM | IC50 (P236L HIV-1 RT): 22 nM | IC50 (Y181C HIV-1 RT): 179 nM | IC50 (E233V HIV-1 RT): 17 nM | IC50 (Y188H HIV-1 RT): 77 nM | IC90 (HIV-1 IIIB): 1 nM | IC90 (DLV-R-MF (P236L)): 8 nM | IC90 (L-697661-R-IIIB (Y181C)): 1100 nM | IC90 (DLV-R-IIIB (L100I)): 70 nM | IC90 (R88703-R-IIIB (Y181C)): 170 nM

O=c1cc(Cc2ccccc2)nc(NCCCCO)[nH]1 [compound 23, 6-benzyl-N^2-(4-hydroxybutyl)isocytosine]
Ki [1]: 140000 nM | Ki (L100I HIV-1 RT; Fig 4): 525000 nM | Ki (V106A HIV-1 RT): 75000 nM

CCCN(C)c1nc(C(C)c2c(F)cccc2F)c(C)c(=O)[nH]1 (centres unmarked) [compound 119]
EC50 (HIV-2ROD): 8600 nM

Cc1c(C(C#N)c2c(F)cccc2F)nc(SC(C)C)[nH]c1=O (centres unmarked) [compound 153]
Fold-resistance E138K (EC50 vs HIV-1IIIB) [2]: 2.4 | acute toxicity (in words) [3]: without acute toxicity | oral bioavailability (in words) [4]: optimal oral bioavailability
